Some results are limits rather than exact numbers.

The target in assay [1] is T1, Pancreatic CCK receptor (Rattus norvegicus, UniProt P30551).
T1 construct: Pancreatic receptor membranes were prepared; from tissue; host or cells: rat pancreas membranes
T1 sequence (P30551 1-444): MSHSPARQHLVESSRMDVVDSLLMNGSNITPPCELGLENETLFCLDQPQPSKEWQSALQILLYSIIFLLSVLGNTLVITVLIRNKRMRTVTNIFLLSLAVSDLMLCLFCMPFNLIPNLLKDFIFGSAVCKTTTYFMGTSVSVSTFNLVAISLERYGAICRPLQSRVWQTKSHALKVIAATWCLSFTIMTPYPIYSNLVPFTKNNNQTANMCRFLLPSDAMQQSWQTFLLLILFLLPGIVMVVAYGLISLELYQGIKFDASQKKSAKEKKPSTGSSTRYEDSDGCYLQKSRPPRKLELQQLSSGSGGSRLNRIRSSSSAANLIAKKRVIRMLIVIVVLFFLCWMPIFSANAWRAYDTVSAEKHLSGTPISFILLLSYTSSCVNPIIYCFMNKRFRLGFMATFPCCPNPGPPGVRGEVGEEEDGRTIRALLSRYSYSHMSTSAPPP
Nature of the assay: Pancreatic cholecystokinin receptor binding assay (125I-CCK-8). As to conditions: rat pancreas membranes, 37° C., 30 minutes. The protocol: Radiolabeled CCK-8 was purchased from New England Nuclear as ^125 I-CCK-8 Receptor binding was performed according to Innis and Snyder Proc. Natl. Acad. Sci., 77, 6917 (1980), with the minor modification of adding the additional protease inhibitors, phenylmethane sulfonyl fluoride (PMSF) and o-phenanthroline, which have no effect on the ^125 I-CCK receptor binding assay. All assays were performed in triplicate. Pancreatic receptor membranes were prepared by homogenzing a gram of fresh rat pancreas tissue in 30 ml TRIS-HCl (50 mM), pH 7.7 using a Brinkman polytron PT10 (Brinkman). The homogenate was washed twice and collected by centrifugation at 48,000×g at 4° C. for 10 minutes. The membranes were resuspended in assay buffer consisting of 5 mM dithiothieitol, 0.1 mM bacitiacin, 5 mM MgCl2.H2 O, 0.2% heat denatured BSA, 1.2 mM PMSF and 0.5 mM O-phenanthroline at a concentration of 100 ml per gram of pancreas. […] The reaction mixtures were mixed briefly and placed in a 37° C. water bath with gentle shaking for 30 minutes. The reaction mixtures were then diluted with 4 ml of ice-cold TRIS buffer, pH 7.7, containing 1 mg/ml bovine serum albumin and immediately filtered in Watman G F/B filters. The filters were washed with 3×4 ml of the same buffer and the radioactivity associated with the filters was counted in a Beckman Gamma 5500 counter. Broths were prepared by adding two volumes of acetone to original broth; supernatants were freeze dried after centrifugation at 1500 g for 10 minutes. The dried samples were then brought up in methanol/H2 O (1:1) and ready for assay.

For assay [2] the following is noted: cited from earlier work.
Assay [3] has as its system gastric acid secretion. The conditions noted are these: cited from earlier work.

As usually defined, the IC50 is the concentration that inhibits the measured activity by half. The low end stands for higher potency, the high end for lower potency. As for `CC1=C\C=C\[C@@H](O)Cc2nc(co2)C(=O)N2CCC=C2C(=O)O[C@H](C(C)C)[C@H](C)/C=C/C(=O)NC\C=C\1` [Compound I], in assay [1], the IC50 is over 10 µM.

Take `CC1=C\C=C\[C@H](O)Cc2nc(co2)C(=O)N2CCC=C2C(=O)O[C@H](C(C)C)[C@H](C)/C=C/C(=O)NC\C=C\1` [Compound II]: in assay [1], the IC50 was over 10 µM.

As to “C-terminal octapeptide: C-terminal octapeptide of CCK”, in assay [2] (compared with CCK-33), the “efficacy relative to CCK-33” value was “same efficacy”. In addition, the “potency relative to CCK-33” value in assay [2] (more potent than CCK-33) is given as “approximately ten”.

As to Gastrin-17, in assay [3] (more potent than Gastrin-13, gastric acid secretion), the “potency relative to Gastrin-13” value is listed as 2.5 times. In addition, the “potency relative to Gastrin-34” value in assay [3] (more potent than Gastrin-34, gastric acid secretion) is given as 5 times.

`CC1=C\C=C\C(=O)Cc2nc(co2)C(=O)N2CCC=C2C(=O)O[C@H](C(C)C)[C@H](C)/C=C/C(=O)NC\C=C\1` [Compound III] had an IC50 in assay [1] of over 10 µM.

On to `CC1=C\[C@@H](O)CC(=O)Cc2nc(co2)C(=O)N2CCC=C2C(=O)O[C@H](C(C)C)[C@H](C)/C=C/C(=O)NC\C=C\1` [Virginiamycin M1], for which the IC50 in assay [1] is over 100 µM.

The record behind these values is patent US5137900A, “Therapeutic virginiamycin M1 analogs” (Merck & Co., Inc., priority 1991, dated 1992).
